Experimental data reported in patent US4684664A, “Derivatives of β-(4-isocyano-1,2,3,4-diepoxycyclopentyl) acrylic acid” (Kureha Kagaku Kogyo Kabushiki Kaisha, priority 1984, dated 1987).
In brackets after ≈: the same amount, converted by molar mass.

Tests used:
Assay type in all cases: cell-based
[1] = test system: Staphylococcus aureus FDA 209PJc-1; test: Antibacterial activity, agar-dilution MIC, organism No. 1; settings: Staphylococcus aureus, FDA209PJC1; Organism No. 1, bouillon-agar; read-out: Minimum Inhibitory Concentration
Method in brief: (§1)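 Agar dilution, bouillon-agar plates; MIC reported in μg/ml of medium.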

[2] = test system: Staphylococcus aureus Terajima; test: Antibacterial activity, agar-dilution MIC, organism No. 2; settings: Staphylococcus aureus; Organism No. 2, bouillon-agar; read-out: Minimum Inhibitory Concentration
Method in brief: as §1

[3] = test system: Staphylococcus aureus MS 353; test: Antibacterial activity, agar-dilution MIC, organism No. 3; settings: Staphylococcus aureus, MS353; Organism No. 3, bouillon-agar; read-out: Minimum Inhibitory Concentration
Method in brief: as §1

[4] = test system: Streptococcus pyogenes Cook; test: Antibacterial activity, agar-dilution MIC, organism No. 4; settings: Streptococcus pyogenes; Organism No. 4, bouillon-agar; read-out: Minimum Inhibitory Concentration
Method in brief: as §1

[5] = test system: Escherichia coli NIHJ-JC-2; test: Antibacterial activity, agar-dilution MIC, organism No. 5; settings: Escherichia coli, NIHJJC2; Organism No. 5, bouillon-agar; read-out: Minimum Inhibitory Concentration
Method in brief: as §1

[6] = test system: Escherichia coli K12 C600 IAM 1264; test: Antibacterial activity, agar-dilution MIC, organism No. 6; settings: Escherichia coli, IAM1264; Organism No. 6, bouillon-agar; read-out: Minimum Inhibitory Concentration
Method in brief: as §1

[7] = test system: Klebsiella pneumoniae PCI-602; test: Antibacterial activity, agar-dilution MIC, organism No. 7; settings: Klebsiella pneumoniae, PCI602; Organism No. 7, bouillon-agar; read-out: Minimum Inhibitory Concentration
Method in brief: as §1

[8] = test system: Salmonella typhimurium IID 971; test: Antibacterial activity, agar-dilution MIC, organism No. 8; settings: Salmonella enterica; Organism No. 8, bouillon-agar; read-out: Minimum Inhibitory Concentration
Method in brief: as §1

Salmonella typhi 901 = test: Antibacterial activity, agar-dilution MIC, organism No. 9; settings: Salmonella enterica, TYPHI, read-out: Minimum Inhibitory Concentration
Method in brief: as §1

[9] = test system: Salmonella paratyphi-A 1015; test: Antibacterial activity, agar-dilution MIC, organism No. 10; settings: Salmonella enterica, PARATYPHI, read-out: Minimum Inhibitory Concentration
Method in brief: as §1

[10] = test system: Salmonella shottmuelleri 8006; test: Antibacterial activity, agar-dilution MIC, organism No. 11; settings: Salmonella, 8006; Organism No. 11, bouillon-agar; read-out: Minimum Inhibitory Concentration
Method in brief: as §1

[11] = test system: Salmonella enteritidis G 14; test: Antibacterial activity, agar-dilution MIC, organism No. 12; settings: Salmonella enterica, ENTERITIDIS; Organism No. 12, bouillon-agar; read-out: Minimum Inhibitory Concentration
Method in brief: as §1

[12] = test system: Serratia marcescens IAM 1184; test: Antibacterial activity, agar-dilution MIC, organism No. 13; settings: Serratia marcescens, IAM1184; Organism No. 13, bouillon-agar; read-out: Minimum Inhibitory Concentration
Method in brief: as §1

[13] = test system: Bacillus subtilis ATCC 6633; test: Antibacterial activity, agar-dilution MIC, organism No. 14; settings: Bacillus subtilis, ATCC6633; Organism No. 14, bouillon-agar; read-out: Minimum Inhibitory Concentration
Method in brief: as §1

[14] = test system: Pseudomonas aeruginosa IFO 3445; test: Antibacterial activity, agar-dilution MIC, organism No. 15; settings: Pseudomonas aeruginosa, IFO3445; Organism No. 15, bouillon-agar; read-out: Minimum Inhibitory Concentration
Method in brief: as §1

[15] = test system: Pseudomonas aeruginosa NCTC 10490; test: Antibacterial activity, agar-dilution MIC, organism No. 16; settings: Pseudomonas aeruginosa, NCTC10490; Organism No. 16, bouillon-agar; read-out: Minimum Inhibitory Concentration
Method in brief: as §1

[16] = test system: Pseudomonas aeruginosa PAO 1; test: Antibacterial activity, agar-dilution MIC, organism No. 17; settings: Pseudomonas aeruginosa, PAO1; Organism No. 17, bouillon-agar; read-out: Minimum Inhibitory Concentration
Method in brief: as §1

[17] = test system: Proteus morganii IFO 3848; test: Antibacterial activity, agar-dilution MIC, organism No. 18; settings: Morganella morganii, IFO3848; Organism No. 18, bouillon-agar; read-out: Minimum Inhibitory Concentration
Method in brief: as §1

[18] = test system: Proteus mirabilis IFO 3849; test: Antibacterial activity, agar-dilution MIC, organism No. 19; settings: Proteus mirabilis, IFO3849; Organism No. 19, bouillon-agar; read-out: Minimum Inhibitory Concentration
Method in brief: as §1

Proteus vulgaris OX-19 = test: Antibacterial activity, agar-dilution MIC, organism No. 20; settings: Proteus vulgaris, OX19; Organism No. 20, bouillon-agar; read-out: Minimum Inhibitory Concentration
Method in brief: as §1

Proteus vulgaris HX-19 = test: Antibacterial activity, agar-dilution MIC, organism No. 21; settings: Proteus vulgaris, HX19; Organism No. 21, bouillon-agar; read-out: Minimum Inhibitory Concentration
Method in brief: as §1

[19] = test system: Proteus rettgeri IFO 3850; test: Antibacterial activity, agar-dilution MIC, organism No. 22; settings: Providencia rettgeri, IFO3850; Organism No. 22, bouillon-agar; read-out: Minimum Inhibitory Concentration
Method in brief: as §1

[20] = test system: Enterobacter aerogenes ATCC 13048; test: Antibacterial activity, agar-dilution MIC, organism No. 23; settings: Klebsiella aerogenes, ATCC13048; Organism No. 23, bouillon-agar; read-out: Minimum Inhibitory Concentration
Method in brief: as §1

Enterobacter cloacae 963 = test: Antibacterial activity, agar-dilution MIC, organism No. 24; settings: Enterobacter cloacae, 963; Organism No. 24, bouillon-agar; read-out: Minimum Inhibitory Concentration
Method in brief: as §1

[21] = test system: Micrococcus luteus ATCC 9341; test: Antibacterial activity, agar-dilution MIC, organism No. 25; settings: Micrococcus luteus, ATCC9341; Organism No. 25, bouillon-agar; read-out: Minimum Inhibitory Concentration
Method in brief: as §1

[22] = test system: Streptococcus pyogenes IFO 3340; test: Antibacterial activity, agar-dilution MIC, organism No. 26; settings: Streptococcus pyogenes, IFO3340; Organism No. 26, bouillon-agar; read-out: Minimum Inhibitory Concentration
Method in brief: as §1

[23] = test system: Streptococcus faecium IFO 3826; test: Antibacterial activity, agar-dilution MIC, organism No. 27; settings: Enterococcus faecium, IFO3826; Organism No. 27, bouillon-agar; read-out: Minimum Inhibitory Concentration
Method in brief: as §1

[24] = test system: Mycoplasma pneumoniae IID817; test: Antimycoplasmal activity, MIC by phenol red colour change, organism No. 28; settings: Mycoplasma, IID817; Organism No. 28, PPLO broth + 1% glucose, 37° C.; read-out: Minimum Inhibitory Concentration (MIC)
Method: Mycoplasma pneumoniae IID817 was used as the test microorganism in a culture medium prepared by adding 1% of glucose to "PPLO broth (manufactured by Difco Co.) liquid culture medium" at 37° C. with phenol red as an indicator, thereby culturing the test microorganism.

[25] = test system: Candida albicans IAM 4905; test: Antifungal activity, agar-dilution MIC, organism No. 29; settings: Candida albicans, IAM4905; Organism No. 29, bouillon-agar; read-out: Minimum Inhibitory Concentration
Method in brief: as §1

[26] = test system: Aspergillus niger IFO 6342; test: Antifungal activity, agar-dilution MIC, organism No. 30; settings: Aspergillus niger, IFO6342; Organism No. 30, bouillon-agar; read-out: Minimum Inhibitory Concentration
Method in brief: as §1

[C-]#[N+]C12CC3(/C=C/C(=O)OC)OC3C1O2 (stereo not drawn) [Compound No. 1]
MIC [1]: 12.5 µg/mL (≈ 60.3 µM)
MIC [2]: 12.5 µg/mL (≈ 60.3 µM)
MIC [3]: 6.25 µg/mL (≈ 30.2 µM)
MIC [4]: 200 µg/mL (≈ 965 µM)
MIC [5]: 12.5 µg/mL (≈ 60.3 µM)
MIC [6]: 12.5 µg/mL (≈ 60.3 µM)
MIC [7]: 6.25 µg/mL (≈ 30.2 µM)
MIC [8]: 12.5 µg/mL (≈ 60.3 µM)
MIC (Salmonella typhi 901): 3.13 µg/mL (≈ 15.1 µM)
MIC [9]: 6.25 µg/mL (≈ 30.2 µM)
MIC [10]: 6.25 µg/mL (≈ 30.2 µM)
MIC [11]: 6.25 µg/mL (≈ 30.2 µM)
MIC [12]: 200 µg/mL (≈ 965 µM)
MIC [13]: 50 µg/mL (≈ 241 µM)
MIC [14]: > 200 µg/mL
MIC [15]: > 200 µg/mL
MIC [16]: > 200 µg/mL
MIC [17]: 6.25 µg/mL (≈ 30.2 µM)
MIC [18]: 6.25 µg/mL (≈ 30.2 µM)
MIC (Proteus vulgaris OX-19): 6.25 µg/mL (≈ 30.2 µM)
MIC (Proteus vulgaris HX-19): 0.2 µg/mL (≈ 0.965 µM)
MIC [19]: 25 µg/mL (≈ 121 µM)
MIC [20]: > 200 µg/mL
MIC (Enterobacter cloacae 963): 25 µg/mL (≈ 121 µM)
MIC [21]: 6.25 µg/mL (≈ 30.2 µM)
MIC [22]: 100 µg/mL (≈ 483 µM)
MIC [23]: 12.5 µg/mL (≈ 60.3 µM)
MIC [24]: < 0.2 µg/mL
MIC [25]: 6.25 µg/mL (≈ 30.2 µM)
MIC [26]: 12.5 µg/mL (≈ 60.3 µM)

[C-]#[N+]C12CC3(/C=C/C(=O)OCC(=O)c4ccccc4)OC3C1O2 (stereo not drawn) [Compound No. 3]
MIC [1]: 0.2 µg/mL (≈ 0.642 µM)
MIC [2]: 3.13 µg/mL (≈ 10.1 µM)
MIC [3]: 0.05 µg/mL (≈ 0.161 µM)
MIC [4]: 6.25 µg/mL (≈ 20.1 µM)
MIC [5]: 50 µg/mL (≈ 161 µM)
MIC [6]: 50 µg/mL (≈ 161 µM)
MIC [7]: 6.25 µg/mL (≈ 20.1 µM)
MIC [8]: 50 µg/mL (≈ 161 µM)
MIC (Salmonella typhi 901): 12.5 µg/mL (≈ 40.2 µM)
MIC [9]: 6.25 µg/mL (≈ 20.1 µM)
MIC [10]: 6.25 µg/mL (≈ 20.1 µM)
MIC [11]: 12.5 µg/mL (≈ 40.2 µM)
MIC [12]: > 100 µg/mL
MIC [13]: 50 µg/mL (≈ 161 µM)
MIC [14]: > 100 µg/mL
MIC [15]: > 100 µg/mL
MIC [16]: > 100 µg/mL
MIC [17]: 3.13 µg/mL (≈ 10.1 µM)
MIC [18]: 50 µg/mL (≈ 161 µM)
MIC (Proteus vulgaris OX-19): 1.56 µg/mL (≈ 5.01 µM)
MIC (Proteus vulgaris HX-19): 0.05 µg/mL (≈ 0.161 µM)
MIC [19]: 50 µg/mL (≈ 161 µM)
MIC [20]: > 100 µg/mL
MIC (Enterobacter cloacae 963): > 100 µg/mL
MIC [21]: 0.2 µg/mL (≈ 0.642 µM)
MIC [22]: 6.25 µg/mL (≈ 20.1 µM)
MIC [23]: 3.13 µg/mL (≈ 10.1 µM)
MIC [24]: 0.05 µg/mL
MIC [25]: 0.8 µg/mL (≈ 2.57 µM)
MIC [26]: 3.13 µg/mL (≈ 10.1 µM)
